Assay results reported in patent EP4667466A1, “PROTAC DEGRADERS OF MLLT1 AND/OR MLLT3” (priority 2024, dated 2025).

Target: T1, MLLT1 (Homo sapiens, UniProt Q03111)
T1 construct: endogenous in cells; host or cells: MV4-11 (ATCC CRL-9591)
T1 sequence (Q03111 1-559): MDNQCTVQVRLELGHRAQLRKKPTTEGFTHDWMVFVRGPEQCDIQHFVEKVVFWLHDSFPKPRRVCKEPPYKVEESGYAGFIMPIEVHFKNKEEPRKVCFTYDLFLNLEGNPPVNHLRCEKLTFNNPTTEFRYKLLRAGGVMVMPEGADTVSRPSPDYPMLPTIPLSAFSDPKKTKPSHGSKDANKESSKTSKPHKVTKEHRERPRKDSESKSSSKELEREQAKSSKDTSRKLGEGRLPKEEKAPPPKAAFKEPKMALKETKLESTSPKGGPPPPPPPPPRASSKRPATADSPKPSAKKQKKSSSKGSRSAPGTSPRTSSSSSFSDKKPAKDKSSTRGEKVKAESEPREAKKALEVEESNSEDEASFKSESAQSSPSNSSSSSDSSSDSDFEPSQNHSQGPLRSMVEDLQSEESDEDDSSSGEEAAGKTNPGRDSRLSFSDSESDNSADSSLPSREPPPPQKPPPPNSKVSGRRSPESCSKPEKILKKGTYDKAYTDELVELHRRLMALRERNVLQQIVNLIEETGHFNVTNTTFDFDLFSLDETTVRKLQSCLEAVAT
Assay: MLLT1 degradation assay (JESS automated chemiluminescent detection) in MV4-11 cells
Format: cell-based
Details: 24h, with respect to DMSO control
Method: MLLT1 degradation efficacy of compounds was tested in an automated chemiluminescent detection system (JESS, Cat# 004-650). MV4-11 (#CRL-9591, ATCC) cells were seeded at a density of 1.2 million cells/well in a non-treated 6-well cell culture plate in 2.4 mL of complete medium (IMDM + 10% FBS + 1X Penicillin-Streptomycin). 10 mM DMSO stocks were prepared, and cells were treated with three concentrations of test compounds viz. 1000, 100 and 10 nM at a final DMSO concentration of 0.1% and incubated for 24h at 37°C, 5% CO2. Post incubation, cells were centrifuged, washed with HBSS and lysed in 70 uL of RIPA buffer supplemented with Protease inhibitors (sc-24948; Santa Cruz). Subsequently, protein estimation was done using BCA protein assay kit (23225; Pierce). 4 ug protein lysate (4 uL of 1ug/uL lysate) was loaded into each well of the JESS cartridge (SM-WO01; Bio-techne) and the JESS run was performed using 1:900 dilution of anti-human MLLT1 antibody (14893; Cell signaling technology) and 1:1200 dilution of anti-human GAPDH antibody (2118; Cell signaling technology) with anti-rabbit secondary detection module (DM-001; Bio-Techne). Post run, data were analysed using "Compass for SW" software for chemiluminescent detection. The peak area for each band was used for the calculation of MLLT1 degradation with respect to DMSO control. Data is shown as "MLLT1 % degradation". Category A: A ≥ 75% degradation Category B: 50% ≤ B < 75% degradation Category C: 25% ≤ C < 50% degradation Category D: D < 25% degradation Table 1

Structure (SMILES) | inhibition at 0.01 µM | inhibition at 0.1 µM | inhibition at 1 µM
CN1CCC[C@@H]1c1cc2cnc(NC(=O)c3ccc4c(cnn4CCCCCCCC#Cc4cccc5c4CN(C4CCC(=O)NC4=O)C5=O)c3)cc2[nH]1 (stereo partly drawn) [Example 38, 1-(9-(2-(2,6-dioxopiperidin-3-yl)-1-oxoisoindolin-4-yl)non-8-yn-1-yl)-N-(2-((R)-1-methylpyrrolidin-2-yl)-1H-pyrrolo[3,2-c]pyridin-6-yl)-1H-indazole-5-carboxamide] | 50 to 75% | ≥ 75% | 50 to 75%
Cc1nn(CCCCCCCC#Cc2ccc3c(c2)n(C)c(=O)n3C2CCC(=O)NC2=O)c2cc(C(=O)Nc3cc4[nH]c([C@H]5CCCN5C)cc4cn3)ccc12 (stereo partly drawn) [Example 39, 1-(9-(1-(2,6-dioxopiperidin-3-yl)-3-methyl-2-oxo-2,3-dihydro-1H benzo[d]imidazol-5-yl)non-8-yn-1-yl)-3-methyl-N-(2-((R)-1-methylpyrrolidin-2-yl)-1H-pyrrolo[3,2-c]pyridin-6-yl)-1H-indazole-6-carboxamide] | ≥ 75% | ≥ 75% | ≥ 75%
Cc1nn(CCCCCCCC#Cc2ccc(C(=O)N[C@H]3CCC(=O)NC3=O)nc2)c2cc(C(=O)Nc3cc4[nH]c([C@H]5CCCN5C)cc4cn3)ccc12 [Example 41, 1-(9-(6-(((S)-2,6-dioxopiperidin-3-yl)carbamoyl)pyridin-3-yl)non-8-yn-1-yl)-3-methyl-N-(2-((R)-1-methylpyrrolidin-2-yl)-1H-pyrrolo [3,2-c]pyridin-6-yl)-1H-indazole-6-carboxamide] | < 25% | 25 to 50% | 50 to 75%
Cc1nn(CCCCCCCC#Cc2cccc(C(=O)N[C@H]3CCC(=O)NC3=O)n2)c2cc(C(=O)Nc3cc4[nH]c([C@H]5CCCN5C)cc4cn3)ccc12 [Example 42, 1-(9-(6-(((S)-2,6-dioxopiperidin-3-yl)carbamoyl)pyridin-2-yl)non-8-yn-1-yl)-3-methyl-N-(2-((R)-1-methylpyrrolidin-2-yl)-1H-pyrrolo [3,2-c]pyridin-6-yl)-1H-indazole-6-carboxamide] | 50 to 75% | ≥ 75% | ≥ 75%
Cc1nn(CCCCCCCC#Cc2ccnc(C(=O)N[C@H]3CCC(=O)NC3=O)c2)c2cc(C(=O)Nc3cc4[nH]c([C@H]5CCCN5C)cc4cn3)ccc12 [Example 43, 1-(9-(2-(((S)-2,6-dioxopiperidin-3-yl)carbamoyl)pyridin-4-yl)non-8-yn-1-yl)-3-methyl-N-(2-((R)-1-methylpyrrolidin-2-yl)-1H-pyrrolo [3,2-c]pyridin-6-yl)-1H-indazole-6-carboxamide] | 25 to 50% | 50 to 75% | ≥ 75%
Cc1nn(CCCCCN2CCN(c3cccc4c3C(=O)N(C3CCC(=O)NC3=O)C4=O)CC2)c2cc(C(=O)Nc3cc4[nH]c([C@H]5CCCN5C)cc4cn3)ccc12 (stereo partly drawn) [Example 47, 1-(5-(4-(2-(2,6-dioxopiperidin-3-yl)-1,3-dioxoisoindolin-4-yl)piperazin-1-yl)pentyl)-3-methyl-N-(2-((R)-1-methylpyrrolidin-2-yl)-1H-pyrrolo[3,2-c]pyridin-6-yl)-1H-indazole-6-carboxamide] | < 25% | < 25% | 50 to 75%
CCN1CCC[C@@H]1c1cc2cnc(NC(=O)c3ccc4c(C)nn(CCCCCCCC#Cc5cccc6c5CN(C5CCC(=O)NC5=O)C6=O)c4c3)cc2[nH]1 (stereo partly drawn) [Example 48, 1-(9-(2-(2,6-dioxopiperidin-3-yl)-1-oxoisoindolin-4-yl)non-8-yn-1-yl)-N-(2-((R)-1-ethylpyrrolidin-2-yl)-1H-pyrrolo[3,2-c]pyridin-6-yl)-3-methyl-1H-indazole-6-carboxamide] | 25 to 50% | 50 to 75% | ≥ 75%
Cc1nn(CCCCCOCC#Cc2cccc3c2CN(C2CCC(=O)NC2=O)C3=O)c2cc(C(=O)Nc3cc4[nH]c([C@H]5CCCN5C)cc4cn3)ccc12 (stereo partly drawn) [Example 49, 1-(5-((3-(2-(2,6-dioxopiperidin-3-yl)-1-oxoisoindolin-4-yl)prop-2-yn-1-yl)oxy)pentyl)-3-methyl-N-(2-((R)-1-methylpyrrolidin-2-yl)-1H-pyrrolo[3,2-c]pyridin-6-yl)-1H-indazole-6-carboxamide] | ≥ 75% | ≥ 75% | ≥ 75%
Cc1nn(CCOCCCCC#Cc2cccc3c2CN(C2CCC(=O)NC2=O)C3=O)c2cc(C(=O)Nc3cc4[nH]c([C@H]5CCCN5C)cc4cn3)ccc12 (stereo partly drawn) [Example 50] | ≥ 75% | ≥ 75% | ≥ 75%
Cc1nn(CCCCCCCC#Cc2cccc(C(=O)N[C@H]3CCC(=O)NC3=O)c2F)c2cc(C(=O)Nc3cc4[nH]c([C@H]5CCCN5C)cc4cn3)ccc12 [Example 51, 1-(9-(3-(((S)-2,6-dioxopiperidin-3-yl)carbamoyl)-2-fluorophenyl)non-8-yn-1-yl)-3-methyl-N-(2-((R)-1-methylpyrrolidin-2-yl)-1H-pyrrolo[3,2-c]pyridin-6-yl)-1H-indazole-6-carboxamide] | 25 to 50% | 50 to 75% | ≥ 75%
Cc1nn(CCCCCCCC#Cc2ccc(F)c3c2CN(C2CCC(=O)NC2=O)C3=O)c2cc(C(=O)Nc3cc4[nH]c([C@H]5CCCN5C)cc4cn3)ccc12 (stereo partly drawn) [Example 52, 1-(9-(2-(2,6-dioxopiperidin-3-yl)-7-fluoro-1-oxoisoindolin-4-yl)non-8-yn-1-yl)-3-methyl-N-(2-((R)-1-methylpyrrolidin-2-yl)-1H-pyrrolo[3,2-c]pyridin-6-yl)-1H-indazole-6-carboxamide] | ≥ 75% | ≥ 75% | ≥ 75%
Cc1nn(CCCCCCCC#Cc2cccc3c2CN(C2CCC(=O)NC2=O)C3=O)c2cc(C(=O)Nc3cc4[nH]c([C@H]5CCCN5C)c(Cl)c4cn3)ccc12 (stereo partly drawn) [Example 53, N-(3-chloro-2-((R)-1-methylpyrrolidin-2-yl)-1H-pyrrolo[3,2-c]pyridin-6-yl)-1-(9-(2-(2,6-dioxopiperidin-3-yl)-1-oxoisoindolin-4-yl)non-8-yn-1-yl)-3-methyl-1H-indazole-6-carboxamide] | ≥ 75% | ≥ 75% | ≥ 75%
Cc1nn(CCCCCCCCC#Cc2cccc3c2CN(C2CCC(=O)NC2=O)C3=O)c2cc(C(=O)Nc3cc4[nH]c([C@H]5CCCN5C)cc4cn3)ccc12 (stereo partly drawn) [Example 54, 1-(10-(2-(2,6-dioxopiperidin-3-yl)-1-oxoisoindolin-4-yl)dec-9-yn-1-yl)-3-methyl-N-(2-((R)-1-methylpyrrolidin-2-yl)-1H-pyrrolo[3,2-c]pyridin-6-yl)-1H-indazole-6-carboxamide] | ≥ 75% | ≥ 75% | ≥ 75%
CN1CCC[C@@H]1c1cc2cnc(NC(=O)c3ccc4cnn(CCCCCCCC#Cc5cccc6c5CN(C5CCC(=O)NC5=O)C6=O)c4c3)cc2[nH]1 (stereo partly drawn) [Example 55, 1-(9-(2-(2,6-dioxopiperidin-3-yl)-1-oxoisoindolin-4-yl)non-8-yn-1-yl)-N-(2-((R)-1-methylpyrrolidin-2-yl)-1H-pyrrol[3,2-c]pyridin-6-yl)-1H-indazole-6-carboxamide] | 50 to 75% | ≥ 75% | ≥ 75%
Cc1c([C@H]2CCCN2C)[nH]c2cc(NC(=O)c3ccc4c(C)nn(CCCCCCCC#Cc5cccc6c5CN(C5CCC(=O)NC5=O)C6=O)c4c3)ncc12 (stereo partly drawn) [Example 57, 1-(9-(2-(2,6-dioxopiperidin-3-yl)-1-oxoisoindolin-4-yl)non-8-yn-1-yl)-3-methyl-N-(3-methyl-2-((R)-1-methylpyrrolidin-2-yl)-1H-pyrrolo[3,2-c]pyridin-6-yl)-1H-indazole-6-carboxamide] | ≥ 75% | ≥ 75% | ≥ 75%
